Source: patent publication USRE39221E1, “Composition comprising a tramadol material and acetaminophen and its use” (priority 1991, dated 2006)
Where two headings read alike, the source gives them in different places.

Test system: acetylcholine-induced abdominal constriction
Assay: prevention of acetylcholine-induced abdominal constriction in mice (analgesic activity)
Format: in vivo, mice (male CD1)
Conditions: for ED50: Mus musculus, po, 0.5 h; for analgesia: 30 min
Protocol: Male CD1 mice (weighing from 18-24 g) were utilized in determining the analgesic effects associated with the compositions of the invention. The mice were all dosed orally with tramadol hydrochloride (calculated as the base), which was completely dissolved in distilled water, and acetaminophen (calculated as the base), which was completely dissolved in distilled water or in distilled water containing 2% by volume of Tween 80 containing 100% polysorbate 80. The dosing volume was 10 mL/kg.
The procedure used in detecting and comparing the analgesic activity of different classes of analgesia drugs for which there is a good correlation with human efficacy is the prevention of acetylcholine-induced abdominal constriction in mice (H. Collier et al., Br. J. Pharmacol., 32, 295 (1968)).
Mice, intubated with various doses of tramadol hydrochloride alone, acetaminophen alone, combined doses of tramadol hydrochloride and acetaminophen, or vehicle such as distilled water, or distilled water containing 2% by volume of Tween 80, were injected intraperitoneally with a challenge dose of acetylcholine bromide. The acetylcholine was completely dissolved in distilled water at a concentration of […] and injected at the rate of 0.20 mL/20 g. For scoring purposes an “abdominal constriction” was defined as a contraction of the abdominal musculature accompanied by arching of the back and extension of the limbs. The mice were observed 10 minutes for the presence or absence of the abdominal constriction response beginning immediately after receiving the acetylcholine dose, which was 30 minutes after receiving the oral administration of tramadol hydrochloride, acetaminophen, combined doses of tramadol hydrochloride and acetaminophen, or vehicle. Each mouse was used only once.
The analysis of possible superadditivity for the compositions at each fixed ratio was determined as disclosed by R. J. Tallarida et al., Life Sci., 45, 947 (1989). This procedure involved the determination of the total amount in the mixture that is required to produce a specified level of effect, such as 50% (ED50mix), and the corresponding total amount that would be expected under simple additivity (ED50add). Where it was established that ED50mix<ED50add for a specific fixed-ratio, then that composition ratio was superadditive. Both the quantities ED50mix and ED50add were random variables; ED50mix was estimated from the dose-response curve for a specific fixed-ratio; ED50add was obtained by combining the ED50 estimates for the two drugs under additivity. ED50mix was then compared to ED50add via a Student's t-test.
The interaction between tramadol and acetaminophen was determined at precise dosage ratios of tramadol hydrochloride and acetaminophen. Multiple (typically 4-6) coded doses of each selected combination were studied for analgesic effectiveness after 30 minutes using an experimental design which permitted the complete randomization of the separate dosage forms tested.
In FIG. 1, the diagonal line joining the ED50 values of the two drugs given separately represents the simple additivity of effects at different component ratios. The dotted lines adjacent to the diagonal line define the 95% confidence interval. ED50 values falling under the curve (between the line and the origin) indicate superadditivity, i.e., unexpected enhancement of effects. The diagonal dashed lines radiating from the origin represent the dose ratios of APAP to tramadol hydrochloride used in mice receiving the combined drug dosages. The bars through the ED50 points for the tramadol and APAP composition represent the 95% confidence intervals of the ED50 value.

Question: Which ED50 (read-out: ED50 30 min (95% CI's) Tramadol) does the source give for `COc1cccc([C@@]2(O)CCCC[C@@H]2CN(C)C)c1` (racemic) [tramadol only, (1RS, 2RS)-[(dimethylamino)-methyl]-1-(3-methoxy-phenyl)cyclohexanol] here?
Answer: 5.5 mg/kg

Question: What about the analgesia (dose Tramadol 2 + APAP 0 mg/kg, p.o.) of the same molecule?
Answer: 3/15

Question: What about the analgesia (dose Tramadol 3 + APAP 0 mg/kg, p.o.) of the same molecule?
Answer: 4/15

Question: And the analgesia (dose Tramadol 4 + APAP 0 mg/kg, p.o.)?
Answer: 14/45

Question: What about the analgesia (dose Tramadol 6 + APAP 0 mg/kg, p.o.) of the same molecule?
Answer: 20/45

Question: What about the analgesia (dose Tramadol 8 + APAP 0 mg/kg, p.o.) of the same molecule?
Answer: 40/60

Question: And the analgesia (dose Tramadol 10 + APAP 0 mg/kg, p.o.)?
Answer: 15/15

Question: What about the analgesia (dose Tramadol 16 + APAP 0 mg/kg, p.o.) of the same molecule?
Answer: 14/15

Question: Which results are given for `CC(=O)Nc1ccc(O)cc1` [APAP only, acetaminophen]?
Answer: ED50 (APAP component of the ED50, p.o., 30 min after dosing, read-out: ED50 30 min (95% CI's) APAP): 164 mg/kg; analgesia (dose Tramadol 0 + APAP 30 mg/kg, p.o.): 2/15; analgesia (dose Tramadol 0 + APAP 40 mg/kg, p.o.): 12/43; analgesia (dose Tramadol 0 + APAP 50 mg/kg, p.o.): 1/15; analgesia (dose Tramadol 0 + APAP 60 mg/kg, p.o.): 8/30; analgesia (dose Tramadol 0 + APAP 80 mg/kg, p.o.): 23/60; analgesia (dose Tramadol 0 + APAP 100 mg/kg, p.o.): 13/30; analgesia (dose Tramadol 0 + APAP 120 mg/kg, p.o.): 13/30; analgesia (dose Tramadol 0 + APAP 160 mg/kg, p.o.): 10/30; analgesia (dose Tramadol 0 + APAP 200 mg/kg, p.o.): 13/25; analgesia (dose Tramadol 0 + APAP 240 mg/kg, p.o.): 14/25; analgesia (dose Tramadol 0 + APAP 400 mg/kg, p.o.): 12/15; analgesia (dose Tramadol 0 + APAP 800 mg/kg, p.o.): 13/15
